The values below come from the C3SDB collision cross section collection.

The conditions of this series: instrument: DT, stepped-field.

`O=C(O)/C=C(/CC(=O)O)C(=O)O` [Cis-Aconitic Acid]: the “collision cross section (N2)” value ([M+H]+) is recorded as 152.21 Å² and the “collision cross section (N2)” value ([M+Na]+) worked out at 146.78 Å².

In the case of `Nc1ccn([C@@H]2O[C@H](CO)[C@@H](OP(=O)(O)O)[C@H]2O)c(=O)n1` [Cytidine 3'-monophosphate], the “collision cross section (N2)” value reads like this: ([M+H]+) 170.98 Å²; ([M+Na]+) 174.9 Å².

Take `Nc1ccnc(=O)[nH]1` [Cytosine]: the “collision cross section (N2)” value ([M+H]+) stood at 121.58 Å².

Turning to `OC1OC[C@@H](O)[C@H](O)[C@H]1O` (stereo partly drawn) [D-(+)-Xylose], the “collision cross section (N2)” value ([M+Na]+) stood at 132.07 Å².

Turning to `O=C[C@@H](O)[C@H](O)[C@H](O)CO` [D-Arabinose], where the note is “[M+Na]+”, the “collision cross section (N2)” value is given as 143.27 Å².

As to `O=C[C@H](O)[C@H](O)COP(=O)(O)O` [D-Erythrose 4-Phosphate], where the note is “[M+Na]+”, the “collision cross section (N2)” value is given as 153.89 Å².

Regarding `N[C@@H]1C(O)O[C@H](CO)[C@@H](O)[C@@H]1O` (stereo partly drawn) [D-Mannosamine], under “[M+Na]+”, the “collision cross section (N2)” value amounted to 146.73 Å².

`O=C(CO)[C@@H](O)[C@H](O)[C@H](O)[C@H](O)CO` [D-Sedoheptulose]: the “collision cross section (N2)” value ([M+Na]+) worked out at 150.73 Å².

For `O=C(CO)[C@@H](O)[C@H](O)COP(=O)(O)O` [D-Xylulose 5-Phosphate], under “[M+Na]+”, the “collision cross section (N2)” value came out at 151.4 Å².

In the case of `CN(C)C(=O)Nc1ccc(Cl)c(Cl)c1` [Diuron], the “collision cross section (N2)” value ([M+H]+) is recorded as 153.32 Å² and the “collision cross section (N2)” value ([M+Na]+) is on record as 162.7 Å².

In the case of `Cc1cc(O)c2c(c1)C(=O)c1cc(O)cc(O)c1C2=O` [Emodin], the “collision cross section (N2)” value ([M+H]+) was determined as 161.3 Å².

Take `O=C1C[C@@H](c2ccc(O)c(O)c2)Oc2cc(O)cc(O)c21` [Eriodictyol]: the “collision cross section (N2)” value by setting is: ([M+H]+) 170.48 Å²; ([M+Na]+) 182.17 Å².

Regarding `OC[C@@H](O)[C@H](O)[C@H](O)[C@@H](O)CO` [Galactitol], the “collision cross section (N2)” value ([M+Na]+) was determined as 145.91 Å².

Consider `O=c1c(-c2ccc(O)cc2)coc2cc(O)cc(O)c12` [Genistein], for which the “collision cross section (N2)” value ([M+H]+) came out at 163.3 Å² and the “collision cross section (N2)” value ([M+Na]+) came out at 177.67 Å².

As for `O=C(O)[C@H](O)[C@@H](O)[C@H](O)[C@H](O)CO` [Gluconic Acid], the “collision cross section (N2)” value ([M+H]+) stood at 141.89 Å² and the “collision cross section (N2)” value ([M+Na]+) stood at 149.77 Å².

On to `O=C(O)CNCP(=O)(O)O` [Glyphosate], for which the “collision cross section (N2)” value ([M+Na]+) came to 141.17 Å².

Regarding `NC(N)=NCC(=O)O` [Guanidinoacetic Acid], under “[M+H]+”, the “collision cross section (N2)” value was 126.88 Å².

For `CN(C)c1nc(=O)n(C2CCCCC2)c(=O)n1C` [Hexazinone], the “collision cross section (N2)” value ([M+H]+) stood at 163.17 Å² and the “collision cross section (N2)” value ([M+Na]+) is 179.49 Å².

In the case of `CC(C)C1(C)N=C(c2ncccc2C(=O)O)NC1=O` (centres undefined) [Imazapyr], the “collision cross section (N2)” value by setting is: ([M+H]+) 157.81 Å²; ([M+Na]+) 176.07 Å².

As to `OC1C(O)C(O)C(O)C(O)C1O` (centres undefined) [Inositol], the “collision cross section (N2)” value ([M+Na]+) is 151.95 Å².

As to `O=C(O)CC(C(=O)O)C(O)C(=O)O` (centres undefined) [Isocitric Acid], where the note is “[M+Na]+”, the “collision cross section (N2)” value amounted to 146.78 Å².

Take `COc1cc(-c2oc3cc(O)cc(O)c3c(=O)c2O)ccc1O` [Isorhamnetin]: the “collision cross section (N2)” value ([M+H]+) amounted to 172.96 Å² and the “collision cross section (N2)” value ([M+Na]+) turned out to be 195.91 Å².

Turning to `N[C@@H](CCCC(=O)O)C(=O)O` [L-2-Aminoadipic Acid], the “collision cross section (N2)” value came to 136.36 Å² ([M+H]+) and 142.23 Å² ([M+Na]+).

In the case of `NC(=O)C[C@H](N)C(=O)O` [L-Asparagine], the “collision cross section (N2)” value stood at 131.54 Å² ([M+H]+) and 131.94 Å² ([M+Na]+).

As for `N[C@@H](CS)C(=O)O` [L-Cysteine], the “collision cross section (N2)” value runs as follows: ([M+H]+) 149.57 Å²; ([M+Na]+) 151.34 Å².

Consider `CS(=N)(=O)CC[C@H](N)C(=O)O` (stereo partly drawn) [L-Methionine sulfoximine], for which the “collision cross section (N2)” value ([M+H]+) is reported as 139.3 Å² and the “collision cross section (N2)” value ([M+Na]+) came to 143.1 Å².

As to `N[C@@H](Cn1ccc(=O)c(O)c1)C(=O)O` [L-Mimosine], the “collision cross section (N2)” value ([M+H]+) came to 143.47 Å².

As to `O=C(CO)[C@@H](O)[C@@H](O)CO` [L-Ribulose], the “collision cross section (N2)” value ([M+Na]+) is given as 132.81 Å².

`O=C(O)[C@H](O)[C@@H](O)CO` [L-Threonic Acid]: the “collision cross section (N2)” value ([M+Na]+) came out at 136.93 Å².

Turning to `N[C@H](CO)Cc1cnc[nH]1` [L-histidinol], the “collision cross section (N2)” value by setting is: ([M+H]+) 130.9 Å²; ([M+Na]+) 136.57 Å².

For the compound `CCCCCCCCCCCCC(=O)OCC(O)COP(=O)([O-])OCC[N+](C)(C)C` (centres undefined) [LPC 13:0], the “collision cross section (N2)” value was 220.71 Å² ([M+H]+) and 225.41 Å² ([M+Na]+).

With `CCCCCCCCCCCCCC(=O)OC[C@@H](O)COP(=O)([O-])OCC[N+](C)(C)C` [LPC 14:0], the “collision cross section (N2)” value ([M+H]+) is listed as 222 Å² and the “collision cross section (N2)” value ([M+Na]+) stood at 225.77 Å².

As to `CCCCCCCCCCCCCCCCCCC(=O)OCC(O)COP(=O)([O-])OCC[N+](C)(C)C` (centres undefined) [LPC 19:0], the “collision cross section (N2)” value ([M+Na]+) is 244.1 Å².

With `CCCCCCCCCCCCCCCCCCCCCCCC(=O)OC[C@@H](O)COP(=O)([O-])OCC[N+](C)(C)C` [LPC(24:0)], for the setting “[M+Na]+”, the “collision cross section (N2)” value was determined as 262.43 Å².

Turning to `CC(=O)N[C@H]1[C@H](O[C@H]2[C@@H](O)[C@@H](CO)O[C@@H](O[C@H]3[C@H](O)[C@@H](O)C(O)O[C@@H]3CO)[C@@H]2O)O[C@H](CO)[C@@H](O)[C@@H]1O[C@@H]1O[C@H](CO)[C@H](O)[C@H](O)[C@H]1O` (some centres undefined) [Lacto-N-Tetraose], the “collision cross section (N2)” value ([M+Na]+) was 239.18 Å².

Turning to `CC(=O)NC1[C@H](OC2[C@@H](O)[C@H](OC([C@H](O)CO)[C@@H](O)[C@@H](O)C=O)O[C@H](COC3O[C@H](CO)[C@@H](O[C@@H]4O[C@H](CO)[C@H](O)[C@H](O)[C@H]4O)[C@H](O)[C@H]3NC(C)=O)[C@H]2O)O[C@H](CO)[C@@H](O)[C@@H]1OC1O[C@H](CO)[C@H](O)[C@H](O)[C@H]1O` (some centres undefined) [Lacto-N-hexaose], under “[M+Na]+”, the “collision cross section (N2)” value was 301.6 Å².

Regarding `CCCCC/C=C\C\C=C/C=C/C=C/[C@@H](SC[C@H](N)C(=O)NCC(=O)O)[C@@H](O)CCCC(=O)O` [Leukotriene D4], the “collision cross section (N2)” value reads like this: ([M+H]+) 234.1 Å²; ([M+Na]+) 238.7 Å².

Turning to `CCCCC/C=C\C\C=C/C=C/C=C/[C@@H](SC[C@H](N)C(=O)O)[C@@H](O)CCCC(=O)O` [Leukotriene E4], the “collision cross section (N2)” value stood at 213.2 Å² ([M+H]+) and 227.9 Å² ([M+Na]+).

Turning to `CCCCCCCCCCCCCCCCCCCCCCCC(=O)O` [Lignoceric Acid], the “collision cross section (N2)” value ([M+Na]+) worked out at 216.86 Å².

For the compound `C=CC(C)(O)CCC=C(C)C` (centres undefined) [Linalool], the “collision cross section (N2)” value ([M+Na]+) turned out to be 140.55 Å².

In the case of `COC(=O)C1=CO[C@@H](O[C@@H]2O[C@H](CO)[C@@H](O)[C@H](O)[C@H]2O)[C@@H]2[C@@H](C)[C@@H](O)C[C@H]12` [Loganin], the “collision cross section (N2)” value ([M+Na]+) turned out to be 195.65 Å².
